SMILES strings stand for the structures. In brackets after ≈: the same amount, converted by molar mass.

One assay deals with T. rubrum ATCC10218. In words: Measurement of antifungal activity (MIC, WST8 growth inhibition). To be noted: Trichophyton rubrum, 96 h; 80% growth inhibition concentration; T. rubrum ATCC10218, RPMI1640/MOPS, 28° C., 4 days. Type of assay: cell-based. Here is the method:
(§1) The compounds for evaluation were dissolved in dimethyl sulfoxide (DMSO) and used. As the test medium, RPMI1640 medium containing 0.165 M 3-morpholino propane sulfonic acid (MOPS) was used. As the test strain, T. mentagrophytes ATCC18748 or T. rubrum ATCC10218 was used. 100 μL of the test strain each at a concentration of 1×10^4 conidia/mL was dispensed, mixed with compounds for evaluation on 96 well half area plate so that the concentration of DMSO becomes 1%, and cultured at 28° C. for 3 days (for T. mentagrophytes) or for 4 days (for T. rubrum). Then, 5 μL of Cell Counting Kit8 (WST8) was added and the absorbances at 450 nm and 595 nm was measured as background. Subsequently, they were incubated at 28° C. for 5 hours (for T. mentagrophytes) or overnight (for T. rubrum) to color, and again the absorbances at 450 nm and 595 nm was measured, and then calculated the growth inhibition percentages using the differences from the background, and 80% growth inhibition concentration was regarded as MIC (μg/ml). Measurement of antifungal activity was conducted by the following method. Compounds for evaluation were dissolved in dimethyl sulfoxide (DMSO) and used. As the test medium, RPMI1640 medium containing 0.165 M 3-morpholinopropane sulfonic acid (MOPS) was used. As the test strain, T. mentagrophytes ATCC18748 or T. rubrum ATCC10218 was used. 100 μL of the test strain was dispensed at a concentration of 1×10^4 conidia/mL, mixed with compounds for evaluation on 96 well half area plate so that the concentration of DMSO becomes 1%, and cultured at a culture temperature of 28° C. for 3 days (for T. mentagrophytes) or for 4 days (for T. rubrum). Then, 5 μL of Cell Counting Kit8 (WST8) was added and the absorbances at 450 nm and 595 nm was measured as background. Subsequently, they were incubated at 28° C. for 5 hours (for T. mentagrophytes) or overnight (for T. rubrum), and again measured the absorbances at 450 nm and 595 nm was measured, and then calculated the growth inhibition percentages using the differences from the background, and 80% growth inhibition concentration was regarded as MIC (μg/ml).
For orientation: Tetrazolium assays rely on reduction of a dye to a coloured formazan, in cell work by metabolically active cells.
Usually MIC stands for the smallest concentration in the dilution series that meets the test's criterion for growth inhibition. Higher therefore signals a less susceptible organism. `Cc1cc(C)n(-c2ccccc2O)n1` [Example 1, 2-(3,5-Dimethyl-1H-pyrazol-1-yl)phenol]: the MIC was in the range of 4 to 16 mg/L (≈ 21.3 to 85 µM).
`Cc1cc(C(F)(F)F)nn1-c1ccccc1O` [Example 5, 2-(5-Methyl-3-trifluoromethyl-1H-pyrazol-1-yl)phenol] had a minimum inhibitory concentration (MIC) of 32 to 64 mg/L (≈ 132 to 264 µM).
On the same count and under the same terms, the figure for `Oc1ccccc1-n1nc(C(F)(F)F)cc1C(F)(F)F` [Example 6, 2-(3,5-Bistrifluoromethyl-1H-pyrazol-1-yl)phenol] is > 64 mg/L; for `Cc1ccn(-c2ccccc2O)n1` [Example 7, 2-(3-Methyl-1H-pyrazol-1-yl)phenol] it is > 64 mg/L.
Consider `Cc1ccnn1-c1ccccc1O` [Example 8, 2-(5-Methyl-1H-pyrazol-1-yl)phenol], for which the MIC is > 64 mg/L.
Still for that read-out and setting: the figure for `Cc1nn(-c2ccccc2O)c(C)c1C` [Example 9, 2-(3,4,5-Trimethyl-1H-pyrazol-1-yl)phenol] is ≤ 2 mg/L; for `CC(C)(C)c1cc(N)n(-c2ccccc2O)n1` [Example 10, 2-(5-Amino-3-tert-butyl-1H-pyrazol-1-yl)phenol] it is > 64 mg/L; for `Cc1cc(C)n(-c2cc(Cl)ccc2O)n1` [Example 11, 4-Chloro-2-(3,5-dimethyl-1H-pyrazol-1-yl)phenol] it is 32 to 64 mg/L (≈ 144 to 287 µM).
Take `Cc1cc(C)n(-c2cccc(Cl)c2O)n1` [Example 12, 2-Chloro-6-(3,5-dimethyl-1H-pyrazol-1-yl)phenol]: the minimal inhibitory concentration (MIC) is > 64 mg/L.
Compound `Cc1nn(-c2ccccc2O)c(C)c1Cl` [Example 13, 2-(4-Chloro-3,5-dimethyl-1H-pyrazol-1-yl)phenol] registered an MIC of 4 to 16 mg/L (≈ 18 to 71.9 µM).
Consider `CCc1cc(CC)n(-c2ccccc2O)n1` [Example 14, 2-(3,5-Diethyl-1H-pyrazol-1-yl)phenol], for which the MIC is 4 to 16 mg/L (≈ 18.5 to 74 µM).
The same measure, in the same setting: the result for `Cc1cc(C)n(-c2cccc(O)c2O)n1` [Example 15, 3-(3,5-Dimethyl-1H-pyrazol-1-yl)benzene-1,2-diol] reads 16 to 32 mg/L (≈ 78.3 to 157 µM); that for `Cc1cc(C)n(-c2cc(O)ccc2O)n1` [Example 16, 2-(3,5-Dimethyl-1H-pyrazol-1-yl)benzene-1,4-diol], > 64 mg/L; that for `CCc1c(C)nn(-c2ccccc2O)c1C` [Example 17, 2-(4-Ethyl-3,5-dimethyl-1H-pyrazol-1-yl)phenol], ≤ 2 mg/L.
The same measure, in the same setting: the result for `Cc1nn(-c2ccc(F)cc2O)c(C)c1C` [Example 18, 5-Fluoro-2-(3,4,5-trimethyl-1H-pyrazol-1-yl)phenol] reads 4 to 16 mg/L (≈ 18.2 to 72.6 µM); that for `Cc1nn(-c2cc(O)ccc2O)c(C)c1Cl` [Example 19, 2-(4-Chloro-3,5-dimethyl-1H-pyrazol-1-yl)benzene-1,4-diol], 16 to 32 mg/L (≈ 67 to 134 µM).
Same read-out and setting: the figure for `Cc1nn(-c2cc(F)ccc2O)c(C)c1C` [Example 20, 4-Fluoro-2-(3,4,5-trimethyl-1H-pyrazol-1-yl)phenol] is 32 to 64 mg/L (≈ 145 to 291 µM); for `Cc1nn(-c2ccc(F)cc2O)c(C)c1Cl` [Example 21, 2-(4-Chloro-3,5-dimethyl-1H-pyrazol-1-yl)-5-fluoro phenol] it is 4 to 16 mg/L (≈ 16.6 to 66.5 µM).
Take `CCOC(=O)c1c(C)nn(-c2ccccc2O)c1C` [Example 22, Ethyl 1-(2-hydroxyphenyl)-3,5-dimethyl-1H-pyrazol-4-carboxylate]: the minimal inhibitory concentration (MIC) was in the range of 32 to 64 mg/L (≈ 123 to 246 µM).

Another assay relates to T. mentagrophytes ATCC18748. The description is as above. Type of assay: cell-based. To be noted: Trichophyton mentagrophytes, 72 h; 80% growth inhibition concentration; T. mentagrophytes ATCC18748, RPMI1640/MOPS, 28° C., 3 days. As for the experimental part: as §1
`Cc1cc(C)n(-c2ccccc2O)n1` [Example 1, 2-(3,5-Dimethyl-1H-pyrazol-1-yl)phenol] registered a minimal inhibitory concentration (MIC) of 2 to 8 mg/L (≈ 10.6 to 42.5 µM).
`Cc1cc(C(F)(F)F)nn1-c1ccccc1O` [Example 5, 2-(5-Methyl-3-trifluoromethyl-1H-pyrazol-1-yl)phenol] registered an MIC of 16 to 32 mg/L (≈ 66.1 to 132 µM).
Regarding `Oc1ccccc1-n1nc(C(F)(F)F)cc1C(F)(F)F` [Example 6, 2-(3,5-Bistrifluoromethyl-1H-pyrazol-1-yl)phenol], the minimal inhibitory concentration (MIC) was in the range of 16 to 32 mg/L (≈ 54 to 108 µM).
With `Cc1ccn(-c2ccccc2O)n1` [Example 7, 2-(3-Methyl-1H-pyrazol-1-yl)phenol], the MIC lay in the range of 16 to 32 mg/L (≈ 91.8 to 184 µM).
`Cc1ccnn1-c1ccccc1O` [Example 8, 2-(5-Methyl-1H-pyrazol-1-yl)phenol] came in with an MIC of 16 to 32 mg/L (≈ 91.8 to 184 µM).
On the same count and under the same terms, the result for `Cc1nn(-c2ccccc2O)c(C)c1C` [Example 9, 2-(3,4,5-Trimethyl-1H-pyrazol-1-yl)phenol] reads ≤ 1 mg/L.
For orientation: inhibition of growth means how much of the control response was suppressed. High values mean a strong effect, low ones a weak effect. On to `CC(C)(C)c1cc(N)n(-c2ccccc2O)n1` [Example 10, 2-(5-Amino-3-tert-butyl-1H-pyrazol-1-yl)phenol], for which the inhibition of growth at 32 µg/mL was 50 to 80%.
For `Cc1cc(C)n(-c2cc(Cl)ccc2O)n1` [Example 11, 4-Chloro-2-(3,5-dimethyl-1H-pyrazol-1-yl)phenol], the MIC is 16 to 32 mg/L (≈ 71.9 to 144 µM).
On to `Cc1cc(C)n(-c2cccc(Cl)c2O)n1` [Example 12, 2-Chloro-6-(3,5-dimethyl-1H-pyrazol-1-yl)phenol], for which the MIC lay within 16 to 32 mg/L (≈ 71.9 to 144 µM).
The same measure, in the same setting: the figure for `Cc1nn(-c2ccccc2O)c(C)c1Cl` [Example 13, 2-(4-Chloro-3,5-dimethyl-1H-pyrazol-1-yl)phenol] is ≤ 1 mg/L; for `CCc1cc(CC)n(-c2ccccc2O)n1` [Example 14, 2-(3,5-Diethyl-1H-pyrazol-1-yl)phenol] it is 2 to 8 mg/L (≈ 9.25 to 37 µM).
Still for that read-out and setting: the figure for `Cc1cc(C)n(-c2cccc(O)c2O)n1` [Example 15, 3-(3,5-Dimethyl-1H-pyrazol-1-yl)benzene-1,2-diol] is 16 to 32 mg/L (≈ 78.3 to 157 µM); for `Cc1cc(C)n(-c2cc(O)ccc2O)n1` [Example 16, 2-(3,5-Dimethyl-1H-pyrazol-1-yl)benzene-1,4-diol] it is 16 to 32 mg/L (≈ 78.3 to 157 µM); for `CCc1c(C)nn(-c2ccccc2O)c1C` [Example 17, 2-(4-Ethyl-3,5-dimethyl-1H-pyrazol-1-yl)phenol] it is ≤ 1 mg/L.
Turning to `Cc1nn(-c2ccc(F)cc2O)c(C)c1C` [Example 18, 5-Fluoro-2-(3,4,5-trimethyl-1H-pyrazol-1-yl)phenol], the minimal inhibitory concentration (MIC) fell in the range of 2 to 8 mg/L (≈ 9.08 to 36.3 µM).
As for `Cc1nn(-c2cc(O)ccc2O)c(C)c1Cl` [Example 19, 2-(4-Chloro-3,5-dimethyl-1H-pyrazol-1-yl)benzene-1,4-diol], the MIC lay within 16 to 32 mg/L (≈ 67 to 134 µM).
For `Cc1nn(-c2cc(F)ccc2O)c(C)c1C` [Example 20, 4-Fluoro-2-(3,4,5-trimethyl-1H-pyrazol-1-yl)phenol], the MIC is 16 to 32 mg/L (≈ 72.6 to 145 µM).
Still for that read-out and setting: the figure for `Cc1nn(-c2ccc(F)cc2O)c(C)c1Cl` [Example 21, 2-(4-Chloro-3,5-dimethyl-1H-pyrazol-1-yl)-5-fluoro phenol] is ≤ 1 mg/L; for `CCOC(=O)c1c(C)nn(-c2ccccc2O)c1C` [Example 22, Ethyl 1-(2-hydroxyphenyl)-3,5-dimethyl-1H-pyrazol-4-carboxylate] it is 16 to 32 mg/L (≈ 61.5 to 123 µM).
